Laboratory results taken from the kinase profiling compilation of Christmann-Franck et al. (2016).

Legend:
Assay in all cases: KINOMEscan competition binding
Conditions in all cases: compound 10.0 µM
CAMK1G (human) = CAMK1G (human) (UniProt Q96NX5)
PRKD3 (human) = PRKD3 (human) (UniProt O94806)
ZAP70 (human) = ZAP70 (human) (UniProt P43403)
STK3 (human) = STK3 (human) (UniProt Q13188)
PKN1 (human) = PKN1 (human) (UniProt Q16512)
TNK1 (human) = TNK1 (human) (UniProt Q13470)
LIMK1 (human) = LIMK1 (human) (UniProt P53667)
EPHA7 (human) = EPHA7 (human) (UniProt Q15375)
ITK (human) = ITK (human) (UniProt Q08881)
PKMYT1 (human) = PKMYT1 (human) (UniProt Q99640)
MYO3A (human) = MYO3A (human) (UniProt Q8NEV4)
TGFBR1 (human) = TGFBR1 (human) (UniProt P36897)
STK32C (human) = STK32C (human) (UniProt Q86UX6)
NEK1 (human) = NEK1 (human) (UniProt Q96PY6)
PRKCD (human) = PRKCD (human) (UniProt Q05655)
ULK2 (human) = ULK2 (human) (UniProt Q8IYT8)
RIOK3 (human) = RIOK3 (human) (UniProt O14730)
ABL2 (human) = ABL2 (human) (UniProt P42684)
STK25 (human) = STK25 (human) (UniProt O00506)
SRPK3 (human) = SRPK3 (human) (UniProt Q9UPE1)
[1] = target: JAK1 JH2 pseudokinase (human) (UniProt P23458)
PLK4 (human) = PLK4 (human) (UniProt O00444)
FGFR4 (human) = FGFR4 (human) (UniProt P22455)
IGF1R (human) = IGF1R (human) (UniProt P08069)
PTK2 (human) = PTK2 (human) (UniProt Q05397)
ACVR1 (human) = ACVR1 (human) (UniProt Q04771)
IKBKB (human) = IKBKB (human) (UniProt O14920)
RPS6KA4 KD1 (human) = RPS6KA4 KD1 (human) (UniProt O75676)
PKN2 (human) = PKN2 (human) (UniProt Q16513)
RPS6KA2 KD2 (human) = RPS6KA2 KD2 (human) (UniProt Q15349)
ADCK4 (human) = ADCK4 (human) (UniProt Q96D53)
TEC (human) = TEC (human) (UniProt P42680)
[2] = tested on: FLT3 (human), P36888 [ITD]
AXL (human) = AXL (human) (UniProt P30530)
PDPK1 (human) = PDPK1 (human) (UniProt O15530)
HCK (human) = HCK (human) (UniProt P08631)
MARK4 (human) = MARK4 (human) (UniProt Q96L34)
EPHB4 (human) = EPHB4 (human) (UniProt P54760)
WEE2 (human) = WEE2 (human) (UniProt P0C1S8)
AAK1 (human) = AAK1 (human) (UniProt Q2M2I8)

Measured: kinase still bound, per cent of control

Sequence of MARK4 (human) (Q96L34 whole entry, looked up): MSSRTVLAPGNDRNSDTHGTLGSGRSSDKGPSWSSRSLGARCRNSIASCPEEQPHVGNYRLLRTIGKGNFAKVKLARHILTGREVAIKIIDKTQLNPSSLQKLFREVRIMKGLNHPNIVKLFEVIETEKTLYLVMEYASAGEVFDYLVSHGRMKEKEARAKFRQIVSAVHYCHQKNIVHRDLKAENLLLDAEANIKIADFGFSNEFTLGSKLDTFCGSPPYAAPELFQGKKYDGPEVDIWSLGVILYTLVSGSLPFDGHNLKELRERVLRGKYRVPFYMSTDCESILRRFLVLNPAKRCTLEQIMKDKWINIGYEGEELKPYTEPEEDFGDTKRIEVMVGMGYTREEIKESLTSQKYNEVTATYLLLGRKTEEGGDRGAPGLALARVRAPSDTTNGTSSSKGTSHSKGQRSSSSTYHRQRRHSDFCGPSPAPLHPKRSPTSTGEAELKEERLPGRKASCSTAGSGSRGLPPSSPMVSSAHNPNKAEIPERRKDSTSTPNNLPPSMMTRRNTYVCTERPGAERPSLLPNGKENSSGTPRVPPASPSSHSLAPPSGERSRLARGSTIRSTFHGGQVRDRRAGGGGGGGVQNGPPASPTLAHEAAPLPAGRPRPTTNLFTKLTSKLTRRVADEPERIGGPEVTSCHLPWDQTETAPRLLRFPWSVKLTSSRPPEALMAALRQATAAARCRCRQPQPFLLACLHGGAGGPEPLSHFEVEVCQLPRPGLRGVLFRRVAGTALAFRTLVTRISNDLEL
Sequence of PRKD3 (human) (O94806 whole entry, looked up): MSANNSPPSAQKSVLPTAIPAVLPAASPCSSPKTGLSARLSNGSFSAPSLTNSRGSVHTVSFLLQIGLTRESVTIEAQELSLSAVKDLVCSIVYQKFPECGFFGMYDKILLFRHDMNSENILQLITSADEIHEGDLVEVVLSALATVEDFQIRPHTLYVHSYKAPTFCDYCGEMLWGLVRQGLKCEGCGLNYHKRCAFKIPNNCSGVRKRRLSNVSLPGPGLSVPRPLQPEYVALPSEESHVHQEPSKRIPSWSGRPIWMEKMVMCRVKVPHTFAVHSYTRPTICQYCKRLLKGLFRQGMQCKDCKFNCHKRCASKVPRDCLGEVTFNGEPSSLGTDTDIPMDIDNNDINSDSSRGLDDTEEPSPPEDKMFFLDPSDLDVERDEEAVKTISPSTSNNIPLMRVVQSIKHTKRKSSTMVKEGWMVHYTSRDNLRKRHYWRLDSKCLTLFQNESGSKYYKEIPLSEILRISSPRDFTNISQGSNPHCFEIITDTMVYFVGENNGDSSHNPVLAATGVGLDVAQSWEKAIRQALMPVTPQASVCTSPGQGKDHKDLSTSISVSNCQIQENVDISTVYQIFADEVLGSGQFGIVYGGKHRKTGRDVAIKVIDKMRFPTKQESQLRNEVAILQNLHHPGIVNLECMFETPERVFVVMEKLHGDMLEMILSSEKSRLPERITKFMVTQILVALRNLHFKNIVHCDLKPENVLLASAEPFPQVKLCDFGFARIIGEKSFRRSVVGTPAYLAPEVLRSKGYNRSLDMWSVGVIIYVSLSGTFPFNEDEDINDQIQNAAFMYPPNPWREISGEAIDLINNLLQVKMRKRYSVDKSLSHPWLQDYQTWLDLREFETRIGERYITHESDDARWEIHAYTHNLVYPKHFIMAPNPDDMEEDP
Sequence of ITK (human) (Q08881 whole entry, looked up): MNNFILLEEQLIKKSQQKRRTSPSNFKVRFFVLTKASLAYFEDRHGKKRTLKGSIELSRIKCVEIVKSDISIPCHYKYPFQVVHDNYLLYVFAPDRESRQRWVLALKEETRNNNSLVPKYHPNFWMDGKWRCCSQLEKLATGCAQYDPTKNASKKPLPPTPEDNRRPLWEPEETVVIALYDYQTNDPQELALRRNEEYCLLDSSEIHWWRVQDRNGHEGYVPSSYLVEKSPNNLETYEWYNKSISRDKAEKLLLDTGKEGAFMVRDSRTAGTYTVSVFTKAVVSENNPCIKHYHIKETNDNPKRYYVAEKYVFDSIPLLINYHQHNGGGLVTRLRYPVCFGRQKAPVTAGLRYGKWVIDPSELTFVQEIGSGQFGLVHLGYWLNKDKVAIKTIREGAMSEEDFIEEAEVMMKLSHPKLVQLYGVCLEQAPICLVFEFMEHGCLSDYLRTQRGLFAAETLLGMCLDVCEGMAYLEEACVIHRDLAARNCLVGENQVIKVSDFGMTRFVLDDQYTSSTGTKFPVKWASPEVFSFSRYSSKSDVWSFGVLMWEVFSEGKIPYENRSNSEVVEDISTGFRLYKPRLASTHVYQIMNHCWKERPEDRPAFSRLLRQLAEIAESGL
Sequence of PDPK1 (human) (O15530 whole entry, looked up): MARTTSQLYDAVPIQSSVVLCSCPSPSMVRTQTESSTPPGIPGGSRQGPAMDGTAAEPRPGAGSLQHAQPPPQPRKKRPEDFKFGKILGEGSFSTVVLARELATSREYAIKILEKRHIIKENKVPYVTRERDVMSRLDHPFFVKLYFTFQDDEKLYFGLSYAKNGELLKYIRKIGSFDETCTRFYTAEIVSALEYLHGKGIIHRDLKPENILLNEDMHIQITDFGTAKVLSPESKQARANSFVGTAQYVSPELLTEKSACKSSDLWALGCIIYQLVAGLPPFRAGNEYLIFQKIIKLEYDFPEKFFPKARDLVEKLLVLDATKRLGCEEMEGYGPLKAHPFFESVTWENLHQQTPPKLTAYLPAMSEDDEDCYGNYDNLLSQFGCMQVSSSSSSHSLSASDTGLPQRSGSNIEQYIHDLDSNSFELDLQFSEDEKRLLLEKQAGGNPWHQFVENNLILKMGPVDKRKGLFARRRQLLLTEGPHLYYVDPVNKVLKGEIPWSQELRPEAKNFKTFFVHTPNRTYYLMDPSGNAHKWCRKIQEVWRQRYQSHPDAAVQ
Sequence of EPHA7 (human) (Q15375 whole entry, looked up): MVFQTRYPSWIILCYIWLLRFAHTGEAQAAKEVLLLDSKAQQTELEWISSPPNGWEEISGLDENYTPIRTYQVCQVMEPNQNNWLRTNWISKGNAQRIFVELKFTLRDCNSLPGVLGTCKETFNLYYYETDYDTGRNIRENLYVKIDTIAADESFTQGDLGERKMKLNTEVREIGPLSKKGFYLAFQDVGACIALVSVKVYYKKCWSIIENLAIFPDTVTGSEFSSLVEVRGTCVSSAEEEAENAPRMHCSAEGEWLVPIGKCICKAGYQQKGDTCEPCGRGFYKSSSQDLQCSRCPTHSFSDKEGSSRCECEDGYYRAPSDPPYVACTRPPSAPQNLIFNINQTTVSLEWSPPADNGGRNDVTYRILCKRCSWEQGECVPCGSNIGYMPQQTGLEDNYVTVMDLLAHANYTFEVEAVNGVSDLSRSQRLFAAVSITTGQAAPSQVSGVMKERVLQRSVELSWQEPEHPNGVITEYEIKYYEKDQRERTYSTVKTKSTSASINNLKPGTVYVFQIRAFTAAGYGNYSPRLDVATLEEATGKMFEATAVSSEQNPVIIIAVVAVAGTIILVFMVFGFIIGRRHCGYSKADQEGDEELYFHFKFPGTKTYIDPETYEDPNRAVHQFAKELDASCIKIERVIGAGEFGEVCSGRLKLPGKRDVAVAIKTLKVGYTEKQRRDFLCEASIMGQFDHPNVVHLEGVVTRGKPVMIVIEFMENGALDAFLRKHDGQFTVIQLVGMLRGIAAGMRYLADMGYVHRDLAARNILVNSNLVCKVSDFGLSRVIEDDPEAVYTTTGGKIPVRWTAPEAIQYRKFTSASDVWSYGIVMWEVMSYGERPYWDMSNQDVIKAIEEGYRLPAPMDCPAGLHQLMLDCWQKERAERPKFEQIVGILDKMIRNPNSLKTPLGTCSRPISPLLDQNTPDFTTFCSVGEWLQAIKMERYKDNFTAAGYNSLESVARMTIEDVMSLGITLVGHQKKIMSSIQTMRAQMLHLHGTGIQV
Sequence of SRPK3 (human) (Q9UPE1 whole entry, looked up): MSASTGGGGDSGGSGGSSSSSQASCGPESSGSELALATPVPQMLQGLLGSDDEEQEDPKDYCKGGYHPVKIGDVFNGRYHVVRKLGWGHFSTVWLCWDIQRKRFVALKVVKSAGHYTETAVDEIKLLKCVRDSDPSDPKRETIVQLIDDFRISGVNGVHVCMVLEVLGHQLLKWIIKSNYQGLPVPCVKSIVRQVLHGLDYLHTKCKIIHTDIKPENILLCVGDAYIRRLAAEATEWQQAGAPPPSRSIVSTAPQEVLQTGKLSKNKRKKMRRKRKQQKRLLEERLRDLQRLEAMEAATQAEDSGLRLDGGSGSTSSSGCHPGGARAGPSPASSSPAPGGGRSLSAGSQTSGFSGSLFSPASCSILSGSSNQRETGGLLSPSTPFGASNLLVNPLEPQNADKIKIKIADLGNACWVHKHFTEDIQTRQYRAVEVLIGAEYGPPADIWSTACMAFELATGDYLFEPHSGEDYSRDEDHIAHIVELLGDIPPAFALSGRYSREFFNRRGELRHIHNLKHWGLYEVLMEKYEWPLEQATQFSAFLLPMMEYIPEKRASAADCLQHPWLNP
Sequence of HCK (human) (P08631 whole entry, looked up): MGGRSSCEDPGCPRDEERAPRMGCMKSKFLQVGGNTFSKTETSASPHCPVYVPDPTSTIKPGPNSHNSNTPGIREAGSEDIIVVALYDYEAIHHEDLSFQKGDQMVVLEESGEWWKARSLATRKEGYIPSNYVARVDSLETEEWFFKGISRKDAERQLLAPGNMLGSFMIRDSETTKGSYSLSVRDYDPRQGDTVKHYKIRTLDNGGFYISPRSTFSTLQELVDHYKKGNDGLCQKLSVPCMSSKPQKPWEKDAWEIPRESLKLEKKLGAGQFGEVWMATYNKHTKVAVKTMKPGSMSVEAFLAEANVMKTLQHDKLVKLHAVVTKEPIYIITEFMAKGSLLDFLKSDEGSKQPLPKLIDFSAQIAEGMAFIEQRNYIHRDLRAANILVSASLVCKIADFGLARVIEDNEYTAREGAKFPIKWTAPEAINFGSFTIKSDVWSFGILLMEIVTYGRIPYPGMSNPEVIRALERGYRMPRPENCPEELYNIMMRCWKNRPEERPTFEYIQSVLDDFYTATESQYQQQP

Cn1c(=O)n(-c2ccc(C(C)(C)C#N)cc2)c2c3cc(-c4cnc5ccccc5c4)ccc3ncc21
100%: CAMK1G (human) | PRKD3 (human) | ZAP70 (human) | STK3 (human) | PKN1 (human) | TNK1 (human) | LIMK1 (human) | EPHA7 (human) | ITK (human) | PKMYT1 (human) | MYO3A (human) | TGFBR1 (human) | STK32C (human) | NEK1 (human) | PRKCD (human) | ULK2 (human) | RIOK3 (human) | ABL2 (human) | STK25 (human) | SRPK3 (human) | [1] | PLK4 (human) | FGFR4 (human) | IGF1R (human) | PTK2 (human) | ACVR1 (human) | IKBKB (human) | RPS6KA4 KD1 (human) | PKN2 (human) | RPS6KA2 KD2 (human) | ADCK4 (human) | TEC (human) | [2] | AXL (human) | PDPK1 (human) | HCK (human) | MARK4 (human) | EPHB4 (human) | WEE2 (human) | AAK1 (human)
